Reference: patent US20140248361A1, “HERBAL EXTRACT COMPOSITION AND A PROCESS THEREOF” (PRASAN SOLUTIONS (INDIA) PVT LTD, priority 2012, published 2014)

How the values were obtained:
[1] = Oil stability index (Rancimat) of almond oil; conditions: for Induction Time: in h
Protocol: (§1) The oil stability index is determined using the Metrohm's Rancimat (Metrohm 743 Rancimat).
4.0 g of almond oil is weighed into the reaction vessel. The reaction vessel filled with oil is placed in a heating block. The temperature of the block is maintained at 100° C., 120° C. and 140° C., respectively. The oil is heated at the said temperatures, followed by passing air at a flow rate of 20 L/h. […] These compounds are conveyed by the air flow into measurement vessel containing distilled water where conductivity is being checked continuously by sensor.
The above experiment is repeated by adding 200 ppm of BHA (sample-B), 200 ppm of BHT (sample-B1), 500 ppm of alpha tocopherol (sample-B2) and PRESOL at 200 ppm, 500 ppm and 1000 ppm, respectively to almond oil. From the above experiment, oxidative stability index of untreated oil (control) and treated oil is calculated and the below table illustrates the induction time and the obtained oxidative stability.

[2] = Oil stability index (Rancimat) of apricot oil; conditions: for Induction Time at 200 ppm: in h
Protocol: As used herein, ‘Oil Stability Index (OSI)’ is an American Oil Chemists Society (AOCS) approved method that determines the relative resistance of fat and oil samples to oxidation, which is defined by the following equation—
as §1
4.0 g of apricot oil is weighed into the reaction vessel. The reaction vessel filled with oil is placed in a heating block. The temperature of the block is maintained at 100° C., 120° C. and 140° C., respectively. The oil is heated at the said temperatures, followed by passing air at a flow rate of 20 L/h. Flowing of air through the oil produces peroxides during primary oxidation and organic acids having low molecular weight, aldehydes and ketones with typical rancid odor during the secondary oxidation phase. These compounds are conveyed by the air flow into measurement vessel containing distilled water where conductivity is being checked continuously by sensor.
The above experiment is repeated by adding 200 ppm of BHA (sample-B), 200 ppm of BHT (sample-B1), 500 ppm of alpha tocopherol (sample-B2) and PRESOL at 200 ppm, 500 ppm and 1000 ppm, respectively to apricot oil.

[3] = Oil stability index (Rancimat) of fish oil; conditions: 200 ppm; for Induction Time: in h
Protocol: 4.0 g of fish oil is weighed into the reaction vessel. […] The temperature of the block is maintained at 60° C., 70° C. and 80° C., respectively.

[4] = Peroxide value of fish oil at 10° C.
Protocol: The shelf life is calculated using Rancimat shelf life calculator. The shelf life of oil is studied by carrying out chemical analysis, which include studying peroxide value (represents extent of primary oxidation), Para-anisidine value (represents extent of secondary oxidation) and totox value (reflects total oxidation of oil). […] […] The untreated oil is the control sample without any antioxidant.

With `Cc1cc(C(C)(C)C)c(O)c(C(C)(C)C)c1` [Sample B1, butylated hydroxyl toluene] the “Induction Time” value ([1]; 100° C., 200 ppm) was 24.98, the “Induction Time” value ([1]; 120° C., 200 ppm) was 5.89 and the “Induction Time” value ([1]; 140° C., 200 ppm) was 1.48. For the same compound, the “Induction Time at 200 ppm” value ([2]; 100° C., 200 ppm) was 26.96, the “Induction Time at 200 ppm” value ([2]; 120° C., 200 ppm) was 5.93 and the “Induction Time at 200 ppm” value ([2]; 140° C., 200 ppm) was 1.49.

For `Cc1c(C)c2c(c(C)c1O)CC[C@@](C)(CCC[C@H](C)CCC[C@H](C)CCCC(C)C)O2` [Sample B2, alpha tocopherol], the “Oxidative Stability Index (OSI)” value ([3]; 60° C.) was 2.81, the “Induction Time” value ([3]; 60° C.) was 27.68 and the “Oxidative Stability Index (OSI)” value ([3]; 70° C.) was 2.76. The “Induction Time” value ([3]; 70° C.) was 13.74, the “Oxidative Stability Index (OSI)” value ([3]; 80° C.) was 2.76 and the “Induction Time” value ([3]; 80° C.) was 6.78. The “days after which peroxide value crosses the threshold limit of 8 meq/kg” value ([4]; 200 ppm) was 21 days, the Peroxide value ([4]; day 0, 200 ppm) was 1.74 and the Peroxide value ([4]; day 3, 200 ppm) was 2.13. The Peroxide value ([4]; day 6, 200 ppm) was 3.33, the Peroxide value ([4]; day 9, 200 ppm) was 4.71 and the Peroxide value ([4]; day 12, 200 ppm) was 5.41. It also gave a Peroxide value ([4]; day 15, 200 ppm) of 6.82, a Peroxide value ([4]; day 18, 200 ppm) of 7.84 and a Peroxide value ([4]; day 21, 200 ppm) of 9.02. For the same compound, the Peroxide value ([4]; day 24, 200 ppm) was 10.32, the Peroxide value ([4]; day 27, 200 ppm) was 12.02 and the Peroxide value ([4]; day 30, 200 ppm) was 13.01. It also gave a Peroxide value ([4]; day 33, 200 ppm) of 15.44, a Peroxide value ([4]; day 36, 200 ppm) of 17.16 and a Peroxide value ([4]; day 39, 200 ppm) of 18.94. The Peroxide value ([4]; day 42, 200 ppm) was 20.86, the Peroxide value ([4]; day 45, 200 ppm) was 25.09 and the Peroxide value ([4]; day 48, 200 ppm) was 28.71. For the same compound, the Peroxide value ([4]; day 51, 200 ppm) was 33.89, the Peroxide value ([4]; day 54, 200 ppm) was 39.01 and the Peroxide value ([4]; day 57, 200 ppm) was 44.14. The Peroxide value ([4]; day 60, 200 ppm) was 49.22, the Peroxide value ([4]; day 63, 200 ppm) was 50.06 and the Peroxide value ([4]; day 66, 200 ppm) was 51.22. It also gave a Peroxide value ([4]; day 69, 200 ppm) of 50.85, a Peroxide value ([4]; day 72, 200 ppm) of 50.13 and a Peroxide value ([4]; day 75, 200 ppm) of 49.72. The “Oxidative Stability Index (OSI)” value ([1]; 100° C., 500 ppm) was 1.11, the “Induction Time” value ([1]; 100° C., 500 ppm) was 24.51 and the “Oxidative Stability Index (OSI)” value ([1]; 120° C., 500 ppm) was 1.13. For the same compound, the “Induction Time” value ([1]; 120° C., 500 ppm) was 5.73, the “Oxidative Stability Index (OSI)” value ([1]; 140° C., 500 ppm) was 1.04 and the “Induction Time” value ([1]; 140° C., 500 ppm) was 1.43. For the same compound, the “Oxidative Stability Index (OSI)” value ([2]; 100° C., 500 ppm) was 0.82, the “Induction Time at 200 ppm” value ([2]; 100° C., 500 ppm) was 22.06 and the “Oxidative Stability Index (OSI)” value ([2]; 120° C., 500 ppm) was 0.86. The “Induction Time at 200 ppm” value ([2]; 120° C., 500 ppm) was 5.06, the “Oxidative Stability Index (OSI)” value ([2]; 140° C., 500 ppm) was 0.89 and the “Induction Time at 200 ppm” value ([2]; 140° C., 500 ppm) was 1.32.
